Assays:
[1] = Oral and intracolonic delivery of heparin in rats (APTT); format: in vivo, Sprague-Dawley rats; conditions: Heparin Dose 1 mg/kg, maximum of group means, n=5
Description: Oral gavage (PO) and intracolonic (IC) dosing solutions containing a delivery agent compound and heparin sodium USP in 25% aqueous propylene glycol were prepared. Either the sodium salt of the delivery agent compound was used or the free acid was converted to the sodium salt with one equivalent of sodium hydroxide. Typically, the delivery agent compound and heparin (about 166-182 IU/mg) were mixed by vortex as dry powders. This dry mixture was dissolved in 25% v/v aqueous propylene glycol, vortexed and placed in a sonicator (about 37° C.). The pH was adjusted to about 7 (6.5 to 8.5) with aqueous NaOH (2N). The dosing solution was sonicated to produce a clear solution. The final volume was adjusted to 3.0 mL. The final delivery agent compound dose, heparin dose and volume dose amounts are listed below in Table 2.
The typical dosing and sampling protocols were as follows. Male Sprague-Dawley rats weighing between 275-350 g were fasted for 24 hours and were anesthetized with ketamine hydrochloride (88 mg/kg) intramuscularly immediately prior to dosing. A dosing group of five rats was administered one of the dosing solutions. For oral gavage (PO) dosing, an 11 cm Rusch 8 French catheter was adapted to a 1 mL syringe with a pipette tip. The syringe was filled with dosing solution by drawing the solution through the catheter, which was then wiped dry. The catheter was placed down the esophagus leaving 1 cm of tubing past the rat's incisors. Solution was administered by pressing the syringe plunger. For intracolonic (IC) dosing, a 7.5 cm 8 fr Rusch catheter was adapted to a 1 ml syringe with a pipette tip. The dosing catheter was inserted into the colon through the anus until the tube was no longer visible. The dosing solution was expressed slowly into the colon.
Citrated blood samples were collected by cardiac puncture following the administration of ketamine (88 mg/kg), typically at time—0.25, 0.5, 1.0 and 1.5 hours. Heparin activity was determined by utilizing the activated partial thromboplastin time (APTT) according to the method of Henry, J. B., Clinical Diagnosis and Management by Laboratory Methods, Philadelphia, Pa., W. B. Saunders (1979). Previous studied indicated baseline values of about 20 sec. Results from the five rats in each group were averaged for each time point. The maximum is reported below in Table 2.

[2] = Oral, as printed: Volume Dose 300 ml/kg, Compound Dose 100 mg/kg

SMILES	melting point [°C]	Mean Peak APTT (sec) ± SD ([1]; IC, as printed: Volume Dose 200 ml/kg, Compound Dose 25 mg/kg) [s]	Mean Peak APTT (sec) ± SD [1, 2] [s]	Mean Peak APTT (sec) ± SD ([1]; IC, as printed: Volume Dose 50 ml/kg, Compound Dose 25 mg/kg) [s]
N#Cc1ccccc1OCCCCCC(=O)O (hydrate or solvate) [Compound 4, 6-(2-cyanophenoxy)hexanoic acid]	77 to 80	–	–	–
N#Cc1ccccc1OCCCC(=O)O [Compound 2, 4-(2-cyanophenoxy)butanoic acid]	127 to 128	–	–	–
N#Cc1ccccc1OCCCCC(=O)O [Compound 3, 5-(2-cyanophenoxy) pentanoic acid]	87 to 89	16.23 ± 1.23	203.59 ± 72.97	–
N#Cc1ccccc1OCCCCCCCC(=O)O [Compound 5, 8-(2-cyanophenoxy) octanoic acid]	83 to 85	–	176.25 ± 175.01	80.22 ± 45.70
N#Cc1ccccc1OCCCCCCCCCC(=O)O [Compound 6, 10-(2-cyanophenoxy)decanoic acid]	82 to 84	–	–	–

Second part, led by results:

melting point [°C]	SMILES	Mean Peak APTT (sec) ± SD ([1]; IC, as printed: Volume Dose 200 ml/kg, Compound Dose 25 mg/kg) [s]	Mean Peak APTT (sec) ± SD [1, 2] [s]	Mean Peak APTT (sec) ± SD ([1]; IC, as printed: Volume Dose 50 ml/kg, Compound Dose 25 mg/kg) [s]
87 to 90	N#Cc1cc(Cl)ccc1OCCCCC(=O)O [Compound 7, 5-(4-chloro-2-cyanophenoxy)pentanoic acid]	–	–	–
137 to 140	N#Cc1ccc(OCCCCCCCC(=O)O)cc1 [Compound 8, 8-(4-cyanophenoxy)octanoic acid]	–	–	–
199 to 203	N#Cc1ccccc1OCc1ccc(C(=O)O)cc1 [Compound 9, 4-(2-cyanophenoxymethyl)benzoic acid]	–	–	–

Source: patent US7390834B2, “Cyanophenoxy carboxylic acid compounds and compositions for delivering active agents” (Emisphere Technologies, Inc., priority 2000, dated 2008)
